Laboratory results as given in patent publication US20190254285A1, “SODIUM PHOSPHITE COMBINATIONS” (priority 2016, published 2019).

Assays:
Assay type in all cases: in vivo
Botrytis cinerea = Botrytis cinerea rot on wounded apple and banana fruit; parameters: key: Different results are indicated by different letters; Different results are indicated by different letters; Different results are indicated by different letters; Different results are indicated by different letters; Different results are indicated by different letters
Excerpt: Tested fruit: apple (cv Elstar) and a banana (cv Cavendish) from organic origin/SKAL certified. SKAL is a semi-governmental Dutch organization that controls organic production in the Netherlands.
Used pathogen: Botrytis cinerea spore-suspension containing ˜3×10^5 propagules (spores)/ml.
Application: Fruit peel was damaged with a cork borer, depth ˜0.5 cm into the fruit, 2 wounds per apple fruit; 2 wounds per banana fruit. 30 microliters of a freshly prepared spore suspension of B. cinerea (estimated 3×10^5 spores/ml) were applied by pipette onto each wound. Subsequently, the spore-suspension was allowed to air-dry for 3 hours. 50 microliters of fungicide suspensions 1-6 were applied by pipette to each wound.
All fruits were kept at room temperature (20° C.).
Replicates: All treatments (1-6) were performed on 6 individual apples and 6 individual bananas with 2 wounds each resulting in 12 wounds per fruit per treatment. The recorded observed antifungal activity is the reduction (in percentages) of the average surface of the rot as observed in the 12 wounds compared to the rot surface of the untreated control.
Observation: All wounds were inspected daily for visual symptoms of fruit rot and/or fungus growth. Rot surface was determined after 5 and 7 days (see Tables 1, 2 and 3). The recorded observed antifungal activity is the surface of the rot.

powdery mildew = assay: Powdery mildew on tomato leaf disks; conditions: for Surface area (%): leaf disk area covered by powdery mildew after 10 days, phosphite 16 mM, sulfur 0.5 g per liter
Experimental: Leaves were taken from 5 to 6 week old tomato plant. Per treatment 5 ml was sprayed over 5 leaves and dried for 1 hour. Circular disks were punched from the treated leaves with a diameter of 11 mm. 5 disks per treatment were put on water agar in 90 mm ø petri dishes. Water agar was made by sterilizing agar-agar (5 g/L, Carl Roth), benzimidazole (30 mg/L, Sigma-Aldrich) and antibiotic tetracycline hydrochloride (25 mg/L, Carl Roth) in water. Disks were infected by brushing powdery mildew spores from an infected leave until disks were visually covered by spores. […] Efficacy was calculated by comparing the treatments against the untreated control. Replicates: 20 disks were used per treatment. All phosphite concentrations were tested at a concentration of 16 mM of phosphite. Formulated sulfur was applied at a dose of 0.5 g sulfur per liter. Formulated sulfur consists of the following elements: Sulfur±50% (w/w); Anionic surfactant<3%; Non-ionic surfactant <3%; Water±44%.

black sigatoka [1] = assay: Black sigatoka on banana plants, single leaf test, leaf 1 preventive, VOLLEY 88 OL; conditions: for Area infected (%) / Efficacy: VOLLEY 88 OL 5.525 L/ha, phosphites 2 mol/l at 3 liter/ha; for Efficacy: vs untreated control
Experimental: (§1) A single leaf test was established in a research station located in the community of “Anita Grande,” county of Jimenez, province of Limon, Costa Rica (latitude 10°15′14.15″N, longitude 83°44′20.29″W).
(§2) Every treatment was established in individual plants. Treatments were applied to leaf number 1 to determine their effect as preventive. Leaf position is counted from top to bottom, whereby leaf number 1 is closest to the unfolded leaf. Treatments were distributed systematically to facilitate their location in the field.
(§3) Product applications were done in an area of 10×10 cm, with a special equipment designed to simulate aerial applications. Application was done at 35 pound-force per square inch. Since weather conditions were highly conducive for disease development, and inoculum density was very high, no artificial inoculation was done. All treatments were applied to the same position on the leaf to minimize experimental error. All treatments were applied at the equivalent volume of 25 L ha^−1, as it is done commercially. A total of 3 sprays were applied, application A at Day 0, application B at 7 days after application A (DAA), and application C at day 13 DAA. VOLLEY® 88 OL was sprayed at 5.525 L/ha and the different phosphites were applied at the same PO3 concentration of 2 mol/l and were sprayed at 3 liter/ha.
Mixture of products was done with an electric stirrer (DEWALT® General Purpose, model DW9107), equipped with a standard propel.
(§4) For the evaluation of the efficacy, the diseased area that was affected in the 10×10 cm leaf area was recorded. Evaluations were done 23, 30 and 36 DAA. Efficacy was calculated by comparing the treatments against the untreated control.

black sigatoka [2] = assay: Black sigatoka on banana plants, single leaf test, leaf 3 curative, DITHANE 60 SC; conditions: for Area infected (%) / Efficacy: 8 DAA, leaf 3 curative, DITHANE 60 SC 5 liter/ha; for Area infected (%): phosphites 2 mol/l at 3 liter/ha; for Efficacy: vs untreated control
Experimental: as §1, §2, §3, §4
Similar to Example 8, with the following differences: DITHANE® 60 SC (Dow AgroSciences) at a rate of 5 liter/ha was applied instead of […] and only one measurement was performed at 23 days after application A (DAA).
(§5) Similar to Example 9, with the following differences: Treatments and measurements were applied to leaf number 3, to determine their effect as curative, and one measurement was performed at 8 days after application A (DAA).

black sigatoka [3] = assay: Black sigatoka on banana plants, single leaf test, leaf 3 curative, Bravo 72 SC; conditions: for Area infected (%) / Efficacy: 16 DAA, leaf 3 curative, Bravo 72 SC 0.875 liter/ha, phosphites 3 L/ha; for Efficacy: vs untreated control
Experimental: as §1, §2, §3, §4, §5
Similar to Example 10, with the following differences: Bravo 72 SC (chlorothalonil; Syngenta) was applied at 0.875 liter/ha instead of DITHANE® 60 SC and the phosphites were spayed at a rate of 3 L/ha. One measurement was done at 16 DAA.

[4] = Table 1, phosphonate Concentration 1, mandipropamid control
[5] = Table 1, phosphonate Concentration 2, mandipropamid control
[6] = Table 1, phosphonate Concentration 3, mandipropamid control
[7] = Table 2, phosphonate Concentration 2, mefenoxam control

Compound	Effect on fungicidal attack of Botrytis on apple and banana (Botrytis cinerea; [4])	Effect on fungicidal attack of Botrytis on apple and banana (Botrytis cinerea; [5])	Effect on fungicidal attack of Botrytis on apple and banana (Botrytis cinerea; [6])	Effect on fungicidal attack of Botrytis on apple and banana (Botrytis cinerea; [7])	Surface area (%) (powdery mildew)	Area infected (%) (black sigatoka [1]; 23 DAA)	Efficacy (black sigatoka [1]; 23 DAA)	Area infected (%) (black sigatoka [1]; 30 DAA)	Efficacy (black sigatoka [1]; 30 DAA)	Area infected (%) (black sigatoka [1]; 36 DAA)	Efficacy (black sigatoka [1]; 36 DAA)	Area infected (%) (black sigatoka [2])	Efficacy (black sigatoka [2])	Area infected (%) (black sigatoka [3])	Efficacy (black sigatoka [3])	also measured
N.N.O=[PH](O)O [(NH4)2HPO3]	d	c	b	c	66.32%	9.8%	48.4	26.2%	39.1	34.0%	34.4	9.2%	58.6	51.0%	28.2	–
O=[PH]([O-])[O-].[K+].[K+] [Treatment K2HPO3]	d	c	b	c	58.68%	9.2%	51.6	26.4%	38.6	33.0%	26.5	12.6%	43.2	68.0%	4.2	–
disodium hydrogen phosphite [Na2HPO3]	d	c	b	c	51.20%	18.8%	1.1	31.0%	27.9	38.0%	26.9	15.4%	30.6	68.0%	4.2	Effect on fungicidal attack of Botrytis on apple and banana (Botrytis cinerea; Table 3, Na2HPO3 part, Concentration 1, mandipropamid control): d; Effect on fungicidal attack of Botrytis on apple and banana (Botrytis cinerea; Table 3, Na2HPO3 part, Concentration 2, mandipropamid control): c; Effect on fungicidal attack of Botrytis on apple and banana (Botrytis cinerea; Table 3, Na2HPO3 part, Concentration 3, mandipropamid control): b; Increase of the fungal efficacy of sulphur compared with other phosphite salts (powdery mildew; conclusion from Table 7): increases the fungal efficacy of sulphur the best; Increase of the fungal efficacy of VOLLEY 88 OL compared with other phosphite salts (black sigatoka [1]; conclusion from Table 8): increases the fungal efficacy of VOLLEY® 88 OL the best; Increase of the fungal efficacy of DITHANE 60 SC compared with other phosphite salts (black sigatoka [2]; conclusion from Table 10, curative): increases the fungal efficacy of DITHANE® 60 SC the best; Increase of the fungal efficacy of Bravo 72 SC compared with other phosphite salts (black sigatoka [3]; conclusion from Table 11): increases the fungal efficacy of Bravo 72 SC the best
